The source of these data is patent publication US11000033B2, “Ketone or oxime compound, and herbicide” (NISSAN CHEMICAL CORPORATION, priority 2014, dated 2021).

Holding throughout (type): in vivo
In one data set the test system is Scirpus juncoides. Briefly: Test Example 2: herbicidal activity, application during weed generation in submerged conditions (symbol B). The settings on record: Table 23; application herbicide amount 320 g/ha; grade 0-5 by criteria of Test Example 1. Put shortly: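 Alluvial soil in pots was flooded to a 4 cm water depth and sown with a mix of the three weed species, then grown in a greenhouse at 25° C. to 30° C. At the one- to two-leaf stage, an emulsifiable formulation diluted in water to a set dose was applied to the water surface. Effects were scored visually 3 weeks later.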

For data set [1], the system named is Echinochloa crus-galli var. crus-galli. Description: Test Example 3: herbicidal effect by foliage application, Wagner pot (symbol H). The settings on record: application herbicide amount 320 g/ha. The procedure, abridged: (§1)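 Weeds and rice were sown in alluvial soil under 0.1–0.5 cm of standing water and grown for 14 days in a 25–30 °C greenhouse. An emulsion of the compound, diluted in water to a set dose, was sprayed evenly onto the foliage. Effect was scored against fixed criteria 3 weeks after treatment.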

Another data set deals with Cyperus difformis. Briefly: Test Example 3: herbicidal effect by foliage application, Wagner pot (symbol E). The conditions noted are these: application herbicide amount 320 g/ha. The procedure, abridged:
as §1

Data set [2] concerns Echinochloa crus-galli var. crus-galli. Description: Test Example 4: herbicidal effect by soil treatment (symbol H). The conditions noted are these: 320 g/ha. The procedure, abridged:
(§2)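 Seeds were sown in sterilized diluvial soil, covered with about 1.5 cm of soil, and the soil surface was sprayed with a water-diluted emulsion of the compound at a predetermined rate. Plants grew in a greenhouse at 25° C. to 30° C.; effects were scored visually 3 weeks after application.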

Data set [3] deals with Lolium multiflorum Lam. Briefly: Test Example 4: herbicidal effect by soil treatment (symbol K). The settings on record: 320 g/ha. Put shortly:
as §2

The test system of the next data set is Galium spurium. Briefly: Test Example 4: herbicidal effect by soil treatment (symbol Q). The conditions noted are these: 320 g/ha. The procedure, abridged: as §2
For another data set, the system named is corn. Briefly: Test Example 4: effect on crop by soil treatment (symbol c). The conditions noted are these: 320 g/ha. The procedure, abridged: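 Grown at 25° C. to 30° C. in a greenhouse, the crops came from seed sown spot-wise in sterilized diluvial soil under roughly 1.5 cm of covering soil.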
The next data set concerns rice. Description: Test Example 4: effect on crop by soil treatment (symbol b). The settings on record: 320 g/ha. The procedure, abridged: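 Steps: fill box with sterilized diluvial soil; sow seed spot-like; cover with ~1.5 cm soil; grow in greenhouse (25° C. to 30° C.).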
A further data set relates to Setaria viridis. Description: Test Example 5: herbicidal effect by foliage application, plastic box (symbol G). The conditions noted are these: 320 g/ha, 3 weeks after application. Put shortly: (§3)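 Effect is rated 3 weeks after a foliar spray of water-diluted emulsion concentrate at a predetermined herbicide amount. Plants had grown 14 days in a 25° C. to 30° C. greenhouse from seed in sterilized diluvial soil.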

The test system of the next data set is Avena fatua. Briefly: Test Example 5: herbicidal effect by foliage application, plastic box (symbol I). The settings on record: 320 g/ha, 3 weeks after application. Put shortly:
as §3

Another data set deals with Alopecurus myosuroides. Description: Test Example 5: herbicidal effect by foliage application, plastic box (symbol J). The settings on record: 320 g/ha, 3 weeks after application. Put shortly:
as §3

Data set [4] deals with Lolium multiflorum Lam. Briefly: Test Example 5: herbicidal effect by foliage application, plastic box (symbol K). The settings on record: 320 g/ha, 3 weeks after application. The procedure, abridged: as §3
The test system of another data set is Stellaria media. Briefly: Test Example 5: herbicidal effect by foliage application, plastic box (symbol P). The conditions noted are these: 320 g/ha, 3 weeks after application. Put shortly:
as §3

For another data set, the system named is Veronica persica. Briefly: Test Example 5: herbicidal effect by foliage application, plastic box (symbol R). The settings on record: 320 g/ha, 3 weeks after application. Put shortly: as §3
A further data set deals with rice plant. Briefly: Test Example 5: effect on crop by foliage application, plastic box (symbol b). The conditions noted are these: 320 g/ha, 3 weeks after application. The procedure, abridged: (§4)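 Seeds were sown in spots in sterilized diluvial soil held in a plastic box 21 cm × 13 cm × 7 cm deep, covered with about 1.5 cm of soil, and grown in a greenhouse at 25° C. to 30° C.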

In another data set the test system is wheat. Description: Test Example 5: effect on crop by foliage application, plastic box (symbol e). The settings on record: 320 g/ha, 3 weeks after application. The procedure, abridged:
as §4

Turning to `CON=C(C)CC1CC(OC(=O)N(C)c2ccccc2)=C(c2c(C)cc(C)cc2C)C1=O` (stereo not shown) [1-159], in the data set with Scirpus juncoides, the “Herbicidal effect grade, B: Scirpus juncoides” value (shortened to “Herbicidal effect grade, B”) is 1 (Herbicidal ratio of 5% or higher and lower than 20%). Further, in data set [1], the “herbicidal effect on H (Echinochloa crus-galli var. crus-galli), grade 0-5” value (from here on “herbicidal effect on H”) was 4 (Herbicidal ratio of 70% or higher and lower than 90%). For the same compound, in the data set with Cyperus difformis, the “herbicidal effect on E, grade 0-5” value was 4 (Herbicidal ratio of 70% or higher and lower than 90%). Moreover, the “H: Echinochloa crus-galli var. crus-galli, herbicidal effect grade” value in data set [2] was 3 (Herbicidal ratio of 40% or higher and lower than 70%). Further, the “K: Lolium multiflorum Lam., herbicidal effect grade” value in the data set on Lolium multiflorum Lam. [3] and with Lolium multiflorum Lam. [4] was 5 (Herbicidal ratio of 90% or more (almost completely withered)) in each case. For the same compound, in the data set with Galium spurium, the “Q: Galium spurium, herbicidal effect grade” value (from here on “Q: Galium spurium”) is recorded as 0 (Herbicidal ratio of 5% or lower (almost no effect)). Besides, the “c: corn, effect grade on crop” value with corn is given as 0 (Herbicidal ratio of 5% or lower (almost no effect)). In addition, the “b: directly sowed rice plant, effect grade on crop” value in the data set with rice is 3 (Herbicidal ratio of 40% or higher and lower than 70%). In addition, in the data set on Setaria viridis, the “G: Setaria viridis, herbicidal effect grade” value is 1 (Herbicidal ratio of 5% or higher and lower than 20%). Also, in the data set on Avena fatua, the “I: Avena fatua, herbicidal effect grade” value is recorded as 5 (Herbicidal ratio of 90% or more (almost completely withered)). For the same compound, the “J: Alopecurus myosuroides, herbicidal effect grade” value in the data set on Alopecurus myosuroides was 5 (Herbicidal ratio of 90% or more (almost completely withered)). Besides, the “P: Stellaria media, herbicidal effect grade” value with Stellaria media is listed as 0 (Herbicidal ratio of 5% or lower (almost no effect)). Besides, the “R: Veronica persica, herbicidal effect grade” value with Veronica persica is given as 0 (Herbicidal ratio of 5% or lower (almost no effect)). In addition, in the data set on rice plant, the “b: directly sowed rice plant, effect on crop grade” value was 3 (Herbicidal ratio of 40% or higher and lower than 70%). For the same compound, the “e: wheat, effect on crop grade” value with wheat was 2 (Herbicidal ratio of 20% or higher and lower than 40%).

As for `CON=C(C)CC1CC(OS(=O)(=O)CC[Si](C)(C)C)=C(c2c(C)cc(C)cc2C)C1=O` (stereo not shown) [1-144], in the data set with Scirpus juncoides, the “Herbicidal effect grade, B” value is 4 (Herbicidal ratio of 70% or higher and lower than 90%). Also, the “herbicidal effect on H” value in data set [1] was 5 (Herbicidal ratio of 90% or more (almost completely withered)). The “H: Echinochloa crus-galli var. crus-galli, herbicidal effect grade” value in [2] is given as 5 (Herbicidal ratio of 90% or more (almost completely withered)). In addition, in the data set with Lolium multiflorum Lam. [3], the “K: Lolium multiflorum Lam., herbicidal effect grade” value was 4 (Herbicidal ratio of 70% or higher and lower than 90%). Moreover, the “Q: Galium spurium” value with Galium spurium is reported as 0 (Herbicidal ratio of 5% or lower (almost no effect)). Further, the “c: corn, effect grade on crop” value in the data set on corn is 3 (Herbicidal ratio of 40% or higher and lower than 70%). For the same compound, the “b: directly sowed rice plant, effect grade on crop” value in the data set with rice was 5 (Herbicidal ratio of 90% or more (almost completely withered)). Further, the “G: Setaria viridis, herbicidal effect (criteria 0-5)” value (from here on “G: Setaria viridis … (criteria 0-5)”) in the data set with Setaria viridis was 5 (Herbicidal ratio of 90% or more (almost completely withered)). For the same compound, the “I: Avena fatua, herbicidal effect (criteria 0-5)” value (from here on “I: Avena fatua … (criteria 0-5)”) with Avena fatua is reported as 5 (Herbicidal ratio of 90% or more (almost completely withered)). In addition, in the data set with Alopecurus myosuroides, the “J: Alopecurus myosuroides, herbicidal effect (criteria 0-5)” value is 5 (Herbicidal ratio of 90% or more (almost completely withered)). Also, the “K: Lolium multiflorum Lam., herbicidal effect (criteria 0-5)” value with Lolium multiflorum Lam. [4] is given as 5 (Herbicidal ratio of 90% or more (almost completely withered)). In the data set with Stellaria media, the “P: Stellaria media, herbicidal effect (criteria 0-5)” value (from here on “P: Stellaria media … (criteria 0-5)”) was 2 (Herbicidal ratio of 20% or higher and lower than 40%). Also, in the data set with Veronica persica, the “R: Veronica persica, herbicidal effect (criteria 0-5)” value (from here on “R: Veronica persica … (criteria 0-5)”) is 3 (Herbicidal ratio of 40% or higher and lower than 70%). In the data set with rice plant, the “b: directly sowed rice plant, effect on crop (criteria 0-5)” value is 5 (Herbicidal ratio of 90% or more (almost completely withered)). In the data set on wheat, the “e: wheat, effect on crop (criteria 0-5)” value is 4 (Herbicidal ratio of 70% or higher and lower than 90%).

With `CON=C(C)CC1CC(OC(=O)N2CCCCC2)=C(c2c(C)cc(C)cc2C)C1=O` (stereo not shown) [1-151], the “Herbicidal effect grade, B” value with Scirpus juncoides is 1 (Herbicidal ratio of 5% or higher and lower than 20%). Also, in [1], the “herbicidal effect on H” value was 4 (Herbicidal ratio of 70% or higher and lower than 90%). Besides, the “H: Echinochloa crus-galli var. crus-galli, herbicidal effect grade” value in data set [2] is reported as 0 (Herbicidal ratio of 5% or lower (almost no effect)). Besides, in the data set with Lolium multiflorum Lam. [3], the “K: Lolium multiflorum Lam., herbicidal effect grade” value is recorded as 5 (Herbicidal ratio of 90% or more (almost completely withered)). In addition, in the data set with Galium spurium, the “Q: Galium spurium” value is 0 (Herbicidal ratio of 5% or lower (almost no effect)). Moreover, the “c: corn, effect grade on crop” value with corn is reported as 0 (Herbicidal ratio of 5% or lower (almost no effect)). Besides, the “b: directly sowed rice plant, effect grade on crop” value in the data set on rice was 1 (Herbicidal ratio of 5% or higher and lower than 20%). Also, the “G: Setaria viridis … (criteria 0-5)” value in the data set with Setaria viridis is given as 5 (Herbicidal ratio of 90% or more (almost completely withered)). Further, the “I: Avena fatua … (criteria 0-5)” value with Avena fatua is listed as 5 (Herbicidal ratio of 90% or more (almost completely withered)). In the data set on Alopecurus myosuroides, the “J: Alopecurus myosuroides, herbicidal effect (criteria 0-5)” value is recorded as 5 (Herbicidal ratio of 90% or more (almost completely withered)). Also, in the data set on Lolium multiflorum Lam. [4], the “K: Lolium multiflorum Lam., herbicidal effect (criteria 0-5)” value is given as 5 (Herbicidal ratio of 90% or more (almost completely withered)). Moreover, the “P: Stellaria media … (criteria 0-5)” value in the data set with Stellaria media is 0 (Herbicidal ratio of 5% or lower (almost no effect)). The “R: Veronica persica … (criteria 0-5)” value with Veronica persica is 1 (Herbicidal ratio of 5% or higher and lower than 20%). Also, the “b: directly sowed rice plant, effect on crop (criteria 0-5)” value with rice plant was 4 (Herbicidal ratio of 70% or higher and lower than 90%). Also, in the data set on wheat, the “e: wheat, effect on crop (criteria 0-5)” value was 3 (Herbicidal ratio of 40% or higher and lower than 70%).

As for `CON=C(C)CC1CC(OC(=O)N2CCCC2)=C(c2c(C)cc(C)cc2C)C1=O` (stereo not shown) [1-150], the “Herbicidal effect grade, B” value in the data set on Scirpus juncoides is 3 (Herbicidal ratio of 40% or higher and lower than 70%). For the same compound, the “herbicidal effect on H” value in [1] is listed as 5 (Herbicidal ratio of 90% or more (almost completely withered)). Besides, the “H: Echinochloa crus-galli var. crus-galli, herbicidal effect grade” value in data set [2] is 0 (Herbicidal ratio of 5% or lower (almost no effect)). Also, in the data set on Lolium multiflorum Lam. [3], the “K: Lolium multiflorum Lam., herbicidal effect grade” value is recorded as 5 (Herbicidal ratio of 90% or more (almost completely withered)). Besides, the “Q: Galium spurium” value in the data set with Galium spurium is recorded as 0 (Herbicidal ratio of 5% or lower (almost no effect)). Further, the “c: corn, effect grade on crop” value in the data set with corn was 0 (Herbicidal ratio of 5% or lower (almost no effect)). Moreover, the “b: directly sowed rice plant, effect grade on crop” value with rice is reported as 0 (Herbicidal ratio of 5% or lower (almost no effect)). Besides, in the data set on Setaria viridis, the “G: Setaria viridis … (criteria 0-5)” value was 4 (Herbicidal ratio of 70% or higher and lower than 90%). Besides, the “I: Avena fatua … (criteria 0-5)” value with Avena fatua is 5 (Herbicidal ratio of 90% or more (almost completely withered)). For the same compound, in the data set with Alopecurus myosuroides, the “J: Alopecurus myosuroides, herbicidal effect (criteria 0-5)” value is recorded as 5 (Herbicidal ratio of 90% or more (almost completely withered)). Besides, in the data set with Lolium multiflorum Lam. [4], the “K: Lolium multiflorum Lam., herbicidal effect (criteria 0-5)” value is reported as 5 (Herbicidal ratio of 90% or more (almost completely withered)). In the data set on Stellaria media, the “P: Stellaria media … (criteria 0-5)” value was 0 (Herbicidal ratio of 5% or lower (almost no effect)). Moreover, the “R: Veronica persica … (criteria 0-5)” value in the data set with Veronica persica was 0 (Herbicidal ratio of 5% or lower (almost no effect)). The “b: directly sowed rice plant, effect on crop (criteria 0-5)” value in the data set on rice plant is 5 (Herbicidal ratio of 90% or more (almost completely withered)). Besides, the “e: wheat, effect on crop (criteria 0-5)” value in the data set on wheat is 4 (Herbicidal ratio of 70% or higher and lower than 90%).
